Data on 20 molecules can be found in doi:10.1101/2024.08.19.608619, “Discovery of potent SARS-CoV-2 nsp3 macrodomain inhibitors uncovers lack of translation to cellular antiviral response” (bioRxiv, 2024).

For test [1], the target named is T1, SARS-CoV-2 nsp3-mac1 (Severe acute respiratory syndrome coronavirus 2, UniProt P0DTD1). Kind of test: biochemical. The class given is biochemical. Conditions: SARS-CoV-2 nsp3 macrodomain TR-FRET single point. (In TR-FRET formats the signal depends on donor and acceptor labels being close together.)
Test [2] concerns the target T1, SARS-CoV-2 nsp3-mac1. Kind of test: biochemical. On the set-up: SARS-CoV-2 nsp3 macrodomain TR-FRET single point, per cent inhibition, n=2.
[3] abbreviates: read-out: perc_inhibition_mean, batch_name=ASAP-0000061-002.

Like-named read-outs stand apart in the source and are kept apart here.

For the molecule `OCc1cn([C@@H]2CCCN(c3ncnc4[nH]ccc34)C2)nn1` [ASAP-0000047], at SARS-CoV-2 nsp3-mac1 [1] (concentration 50.0 uM), the perc_inhibition_mean is -0.682%. Further, the inhibition at 50 µM at SARS-CoV-2 nsp3-mac1 [2] (read-out: perc_inhibition_mean, batch_name=ASAP-0000047-001) is -0.682%.
In the case of `C=CCn1c(Cc2ccccc2)nnc1Sc1ncnc2[nH]ccc12` [ASAP-0000048], the perc_inhibition_mean at SARS-CoV-2 nsp3-mac1 [1] (concentration 50.0 uM) is reported as -7.711%. Further, the inhibition at 50 µM on SARS-CoV-2 nsp3-mac1 [2] (read-out: perc_inhibition_mean, batch_name=ASAP-0000048-001) is -7.71%.
As to `Fc1ccc(F)c(Sc2ncnc3[nH]ccc23)c1` [ASAP-0000049], the perc_inhibition_mean at SARS-CoV-2 nsp3-mac1 [1] (concentration 50.0 uM) is -1.149%. In addition, the inhibition at 50 µM at SARS-CoV-2 nsp3-mac1 [2] (read-out: perc_inhibition_mean, batch_name=ASAP-0000049-001) was -1.15%.
With `Cc1ccnc(C2CCN(c3ncnc4[nH]ccc34)CC2)n1` [ASAP-0000050], the perc_inhibition_mean at SARS-CoV-2 nsp3-mac1 [1] (concentration 50.0 uM) was determined as 3.465%. Further, the inhibition at 50 µM on SARS-CoV-2 nsp3-mac1 [2] (read-out: perc_inhibition_mean, batch_name=ASAP-0000050-001) was determined as 3.46%.
Regarding `O=S1(=O)CCC[C@@H](CNc2ncnc3n[nH]cc23)C1` [ASAP-0000051], the perc_inhibition_mean at SARS-CoV-2 nsp3-mac1 [1] (concentration 50.0 uM) was found to be 4.593%. In addition, the inhibition at 50 µM at SARS-CoV-2 nsp3-mac1 [2] (read-out: perc_inhibition_mean, batch_name=ASAP-0000051-001) came out at 4.59%.
Consider `Cc1cccc(C)c1-n1nnnc1CSc1ncnc2[nH]cnc12` [ASAP-0000052], for which the perc_inhibition_mean on SARS-CoV-2 nsp3-mac1 [1] (concentration 50.0 uM) is reported as 6.631%. The inhibition at 50 µM on SARS-CoV-2 nsp3-mac1 [2] (read-out: perc_inhibition_mean, batch_name=ASAP-0000052-001) amounted to 6.63%.
Turning to `CCCNC(=O)[C@H]1CCCN(c2ncnc3[nH]ccc23)C1` [ASAP-0000053], the perc_inhibition_mean on SARS-CoV-2 nsp3-mac1 [1] (concentration 50.0 uM) is given as -4.36%. At SARS-CoV-2 nsp3-mac1 [2] (read-out: perc_inhibition_mean, batch_name=ASAP-0000053-001), the inhibition at 50 µM is -4.36%.
Consider `c1cnc([C@@H]2CCN(c3ncnc4[nH]ccc34)C2)cn1` [ASAP-0000054], for which the perc_inhibition_mean at SARS-CoV-2 nsp3-mac1 [1] (concentration 50.0 uM) is -1.697%. Further, the inhibition at 50 µM at SARS-CoV-2 nsp3-mac1 [2] (read-out: perc_inhibition_mean, batch_name=ASAP-0000054-001) is -1.7%.
In the case of `c1nc(N2CCC[C@@H](c3nc4c(s3)CCC4)C2)c2c[nH]nc2n1` [ASAP-0000055], the perc_inhibition_mean on SARS-CoV-2 nsp3-mac1 [1] (concentration 50.0 uM) was found to be 3.826%. Besides, the inhibition at 50 µM on SARS-CoV-2 nsp3-mac1 [2] (read-out: perc_inhibition_mean, batch_name=ASAP-0000055-001) was 3.83%.
For the molecule `O[C@@]1(C(F)(F)F)CCCN(c2ncnc3n[nH]cc23)CC1` [ASAP-0000057], the perc_inhibition_mean on SARS-CoV-2 nsp3-mac1 [1] (concentration 50.0 uM) was -4.139%. Also, on SARS-CoV-2 nsp3-mac1 [2] (read-out: perc_inhibition_mean, batch_name=ASAP-0000057-001), the inhibition at 50 µM is -4.14%.
Take `CN(C)[C@@H]1CCCN(C(=O)c2cnc3c(c2)c(=O)[nH]c(=O)n3C)CC1` [ASAP-0000058]: the perc_inhibition_mean at SARS-CoV-2 nsp3-mac1 [1] (concentration 50.0 uM) is -8.971%. Moreover, on SARS-CoV-2 nsp3-mac1 [2] (read-out: perc_inhibition_mean, batch_name=ASAP-0000058-001), the inhibition at 50 µM is -8.97%.
Regarding `c1ccc(-c2n[nH]cc2CNc2cnc3[nH]ncc3c2)cc1` [ASAP-0000059], on SARS-CoV-2 nsp3-mac1 [1] (concentration 50.0 uM), the perc_inhibition_mean is reported as -2.044%. For the same molecule, the inhibition at 50 µM on SARS-CoV-2 nsp3-mac1 [2] (read-out: perc_inhibition_mean, batch_name=ASAP-0000059-001) was -2.04%.
`COc1cc(Nc2ncnc3[nH]ccc23)ccc1NC(C)=O` [ASAP-0000060]: the perc_inhibition_mean on SARS-CoV-2 nsp3-mac1 [1] (concentration 50.0 uM) is reported as -7.761%. Further, the inhibition at 50 µM on SARS-CoV-2 nsp3-mac1 [2] (read-out: perc_inhibition_mean, batch_name=ASAP-0000060-001) was -7.76%.
Turning to `O=C(Nc1cnc2[nH]ncc2c1)c1ccncc1Cl` [ASAP-0000061], the perc_inhibition_mean is given as -0.272% at SARS-CoV-2 nsp3-mac1 [1] (concentration 50.0 uM); -2.752% on SARS-CoV-2 nsp3-mac1 [1] (concentration 50.0 uM, n=2); 2.961% at SARS-CoV-2 nsp3-mac1 [1] (concentration 100.0 uM, n=2). The inhibition at 50 µM on SARS-CoV-2 nsp3-mac1 [2] (read-out: perc_inhibition_mean, batch_name=ASAP-0000061-001) is -0.272%; on SARS-CoV-2 nsp3-mac1 [2] (setting [3]), -2.75%. For the same molecule, at SARS-CoV-2 nsp3-mac1 [2] (setting [3]), the inhibition at 100 µM is 2.96%.
Regarding `NC(=O)[C@@H]1CCN(C(=O)c2cnc3[nH]c(=O)[nH]c(=O)c3c2)C1` [ASAP-0000062], at SARS-CoV-2 nsp3-mac1 [1] (concentration 50.0 uM), the perc_inhibition_mean is listed as -6.322%. In addition, the inhibition at 50 µM on SARS-CoV-2 nsp3-mac1 [2] (read-out: perc_inhibition_mean, batch_name=ASAP-0000062-001) is -6.32%.
For the molecule `Brc1ccc(-n2nnnc2Sc2ncnc3[nH]ccc23)cc1` [ASAP-0000063], on SARS-CoV-2 nsp3-mac1 [1] (concentration 50.0 uM), the perc_inhibition_mean is on record as 12.69%. For the same molecule, the inhibition at 50 µM on SARS-CoV-2 nsp3-mac1 [2] (read-out: perc_inhibition_mean, batch_name=ASAP-0000063-001) was 12.7%.
`c1ccc(-c2cc(CNc3ncnc4[nH]ccc34)on2)cc1` [ASAP-0000064]: at SARS-CoV-2 nsp3-mac1 [1] (concentration 100.0 uM), the perc_inhibition_mean is -3.456%. The inhibition at 100 µM on SARS-CoV-2 nsp3-mac1 [2] (read-out: perc_inhibition_mean, batch_name=ASAP-0000064-001) was -3.46%.
For the molecule `CC1OCCC1(O)CNC(=O)c1ncnc2[nH]ccc12` (centres unmarked) [ASAP-0000065], at SARS-CoV-2 nsp3-mac1 [1] (concentration 50.0 uM), the perc_inhibition_mean was 1.864%. Also, the inhibition at 50 µM on SARS-CoV-2 nsp3-mac1 [2] (read-out: perc_inhibition_mean, batch_name=ASAP-0000065-001) stood at 1.86%.
For `O=C(OCc1ccc(Cl)nc1)c1ncnc2[nH]ccc12` [ASAP-0000066], the perc_inhibition_mean at SARS-CoV-2 nsp3-mac1 [1] (concentration 50.0 uM) stood at 6.084%. Moreover, the inhibition at 50 µM on SARS-CoV-2 nsp3-mac1 [2] (read-out: perc_inhibition_mean, batch_name=ASAP-0000066-001) is 6.08%.
Regarding `O=C(Nc1nc2ccc(F)cc2[nH]1)c1cc(N2CCNC2=O)ccc1F` [ASAP-0000067], the perc_inhibition_mean on SARS-CoV-2 nsp3-mac1 [1] (concentration 50.0 uM) is listed as -7.707%. Also, the inhibition at 50 µM on SARS-CoV-2 nsp3-mac1 [2] (read-out: perc_inhibition_mean, batch_name=ASAP-0000067-001) was -7.71%.
